Experimental data as given in ChEMBL document CHEMBL1201862, “PubChem BioAssay data set” (2004).
Each block holds one compound with its values, some of them ahead of it. The source made the active and inactive calls.

Experiments:
[1] = biological target: T1, Zinc finger protein mex-5 (Caenorhabditis elegans, UniProt Q9XUB2); assay: potency of MEX-5 RNA-binding blockers – biochemical, C. elegans, fluorescence polarization, dose response (AID 1960)
T1 sequence (Q9XUB2 whole entry): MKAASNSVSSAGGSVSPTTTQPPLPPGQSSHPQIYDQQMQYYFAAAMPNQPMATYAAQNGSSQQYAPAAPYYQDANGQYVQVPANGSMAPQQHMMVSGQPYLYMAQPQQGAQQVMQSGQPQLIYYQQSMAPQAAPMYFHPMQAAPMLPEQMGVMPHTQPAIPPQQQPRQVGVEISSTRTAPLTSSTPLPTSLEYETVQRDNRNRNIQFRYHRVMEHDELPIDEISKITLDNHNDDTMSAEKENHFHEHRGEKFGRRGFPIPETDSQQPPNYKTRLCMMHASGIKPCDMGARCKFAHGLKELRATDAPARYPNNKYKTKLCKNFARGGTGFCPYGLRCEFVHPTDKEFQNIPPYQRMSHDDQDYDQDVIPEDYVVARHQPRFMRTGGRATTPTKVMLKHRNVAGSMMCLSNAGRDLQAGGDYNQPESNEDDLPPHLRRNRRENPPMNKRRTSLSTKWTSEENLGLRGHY

Phospholipase A2 = Phospholipase A2 (Homo sapiens, UniProt P04054); format: functional;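 further: confirmatory dose-response counterscreen on phospholipase A2, testing hits that came from an ultra-high-throughput screen for ATG4B inhibitors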
Sequence of Phospholipase A2 (P04054 whole entry): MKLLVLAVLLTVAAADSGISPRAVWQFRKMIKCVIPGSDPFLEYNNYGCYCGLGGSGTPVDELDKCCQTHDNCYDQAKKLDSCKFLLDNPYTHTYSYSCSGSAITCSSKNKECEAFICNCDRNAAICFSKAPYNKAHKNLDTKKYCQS

SUMO-activating enzyme [2] = biological target: T2, SUMO-activating enzyme (Homo sapiens, UniProt Q9UBT2); assay: blockers of SAE1/SAE2–UBC9 SUMO transfer – biochemical, HTRF, uHTS, primary screen (AID 2006); format: protein-complex assay
T2 sequence (Q9UBE0 whole entry, the tested form may be a part): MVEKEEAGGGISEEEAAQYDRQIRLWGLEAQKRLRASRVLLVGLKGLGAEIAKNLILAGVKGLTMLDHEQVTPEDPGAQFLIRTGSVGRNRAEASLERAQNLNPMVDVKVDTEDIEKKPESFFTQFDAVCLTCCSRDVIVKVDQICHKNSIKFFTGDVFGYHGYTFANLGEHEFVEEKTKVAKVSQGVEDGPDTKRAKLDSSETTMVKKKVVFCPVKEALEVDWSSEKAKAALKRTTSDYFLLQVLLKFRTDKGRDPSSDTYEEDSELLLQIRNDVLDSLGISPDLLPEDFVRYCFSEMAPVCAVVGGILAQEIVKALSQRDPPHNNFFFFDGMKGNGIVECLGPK
T2 sequence (Q9UBT2 whole entry, the tested form may be a part): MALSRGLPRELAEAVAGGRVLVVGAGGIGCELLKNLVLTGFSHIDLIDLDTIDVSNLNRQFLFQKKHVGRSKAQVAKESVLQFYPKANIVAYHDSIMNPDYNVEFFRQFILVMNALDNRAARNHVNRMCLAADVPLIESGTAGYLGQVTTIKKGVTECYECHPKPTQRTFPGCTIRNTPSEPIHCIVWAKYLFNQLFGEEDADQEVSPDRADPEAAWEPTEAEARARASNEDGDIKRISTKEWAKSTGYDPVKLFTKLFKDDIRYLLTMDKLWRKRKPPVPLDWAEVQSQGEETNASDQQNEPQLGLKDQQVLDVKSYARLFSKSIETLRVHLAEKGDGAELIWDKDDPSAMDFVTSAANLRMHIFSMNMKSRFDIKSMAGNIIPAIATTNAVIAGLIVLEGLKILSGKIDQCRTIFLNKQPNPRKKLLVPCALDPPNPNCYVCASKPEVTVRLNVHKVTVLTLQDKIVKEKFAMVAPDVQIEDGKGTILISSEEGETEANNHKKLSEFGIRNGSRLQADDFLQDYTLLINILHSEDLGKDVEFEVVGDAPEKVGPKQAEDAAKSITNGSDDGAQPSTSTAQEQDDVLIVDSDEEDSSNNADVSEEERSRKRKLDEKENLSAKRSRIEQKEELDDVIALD

[3] = biological target: T3, Carboxy-terminal domain RNA polymerase II polypeptide A small phosphatase 1 (Homo sapiens, UniProt Q9GZU7); assay: CTDSP1 inhibitors, concentration-response, biochemical, absorbance readout, ultra-high-throughput screen actives (AID 540297); format: functional
T3 sequence (Q9GZU7 whole entry): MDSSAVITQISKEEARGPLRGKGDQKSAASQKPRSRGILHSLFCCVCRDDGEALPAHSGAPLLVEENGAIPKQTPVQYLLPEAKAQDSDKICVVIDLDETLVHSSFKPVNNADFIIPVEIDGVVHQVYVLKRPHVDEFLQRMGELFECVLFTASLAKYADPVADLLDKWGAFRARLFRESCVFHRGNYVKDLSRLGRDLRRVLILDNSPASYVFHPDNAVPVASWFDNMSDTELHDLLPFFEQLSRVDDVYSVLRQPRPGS

[4] = biological target: T4, RNA-binding protein pos-1 (Caenorhabditis elegans, UniProt G5EF15); assay: disruptors of C. elegans POS-1 RNA interaction – biochemical, fluorescence polarization, dose response (AID 1964);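 further: purified POS-1 fused to maltose binding protein made in E. coli; potency of compounds blocking POS-1 binding to fluorescent RNA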
T4 sequence (G5EF15 whole entry): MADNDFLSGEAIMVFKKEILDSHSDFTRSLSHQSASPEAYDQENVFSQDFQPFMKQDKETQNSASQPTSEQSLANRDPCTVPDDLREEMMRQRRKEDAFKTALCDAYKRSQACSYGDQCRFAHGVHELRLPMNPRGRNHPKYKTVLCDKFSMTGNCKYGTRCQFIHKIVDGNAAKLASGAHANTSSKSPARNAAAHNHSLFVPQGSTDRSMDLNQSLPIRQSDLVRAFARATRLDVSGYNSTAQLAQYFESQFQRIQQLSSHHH

Cysteine protease ATG4B = biological target: T5, Cysteine protease ATG4B (Homo sapiens, UniProt Q9Y4P1); format: functional;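 further: Fluorescence-based dose-response confirmation assay measuring inhibition of ATG4B activity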
T5 sequence (Q9Y4P1 whole entry): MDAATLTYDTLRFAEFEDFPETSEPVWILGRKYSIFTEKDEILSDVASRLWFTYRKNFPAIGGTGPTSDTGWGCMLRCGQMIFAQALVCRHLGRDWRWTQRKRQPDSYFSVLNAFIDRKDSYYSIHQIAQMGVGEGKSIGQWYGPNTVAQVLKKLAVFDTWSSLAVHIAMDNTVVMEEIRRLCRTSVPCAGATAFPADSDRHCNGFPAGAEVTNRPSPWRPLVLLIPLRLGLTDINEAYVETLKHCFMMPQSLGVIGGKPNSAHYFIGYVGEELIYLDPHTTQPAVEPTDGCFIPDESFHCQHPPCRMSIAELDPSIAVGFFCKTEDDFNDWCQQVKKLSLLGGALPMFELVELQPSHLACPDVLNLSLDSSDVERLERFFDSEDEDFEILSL

SUMO-activating enzyme [5] = biological target: T2, SUMO-activating enzyme; assay: blockers of UBC9-mediated SUMO conjugation – biochemical, AlphaScreen, SUMOylation inhibitor project, confirmation (AID 2018); format: functional
[6] = Luminescence Cell-Based Dose Retest to Confirm Inhibitors of Cancer Stem Cells. [Related pubchem assays (depositor defined):AID2717, AID2721]; format: functional; conditions: Homo sapiens
[7] = biological target: T6, Scavenger receptor class B member 1 (Mus musculus, UniProt Q61009); assay: mouse SR-BI DiI-HDL uptake blockers – ldlA[mSR-BI] cells, fluorescence, cherry pick, dose response (AID 493194); format: functional, cell-based;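 further: cellular uptake of fluorescent DiI-labeled HDL measured as cell fluorescence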
T6 sequence (Q61009 whole entry): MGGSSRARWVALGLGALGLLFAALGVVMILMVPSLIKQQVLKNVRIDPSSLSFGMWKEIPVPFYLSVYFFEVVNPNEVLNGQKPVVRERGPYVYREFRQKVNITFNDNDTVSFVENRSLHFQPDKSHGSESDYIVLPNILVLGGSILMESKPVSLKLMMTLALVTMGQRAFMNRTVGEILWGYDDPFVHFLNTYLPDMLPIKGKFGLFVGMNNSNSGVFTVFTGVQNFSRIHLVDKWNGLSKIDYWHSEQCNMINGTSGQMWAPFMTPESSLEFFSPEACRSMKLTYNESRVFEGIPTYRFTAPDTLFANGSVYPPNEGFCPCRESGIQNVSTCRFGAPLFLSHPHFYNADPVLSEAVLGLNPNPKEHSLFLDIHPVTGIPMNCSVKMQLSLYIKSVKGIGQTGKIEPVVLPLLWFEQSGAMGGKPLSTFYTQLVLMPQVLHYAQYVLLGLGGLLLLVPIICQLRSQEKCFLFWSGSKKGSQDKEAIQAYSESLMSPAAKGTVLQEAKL

[8] = biological target: DNA (cytosine-5)-methyltransferase 1 (Homo sapiens, UniProt P26358); assay: inhibition of DNA methylation by DNMT1 – biochemical, fluorescent molecular beacon, confirmation (AID 602386); format: functional
Sequence of DNA (cytosine-5)-methyltransferase 1 (P26358 whole entry): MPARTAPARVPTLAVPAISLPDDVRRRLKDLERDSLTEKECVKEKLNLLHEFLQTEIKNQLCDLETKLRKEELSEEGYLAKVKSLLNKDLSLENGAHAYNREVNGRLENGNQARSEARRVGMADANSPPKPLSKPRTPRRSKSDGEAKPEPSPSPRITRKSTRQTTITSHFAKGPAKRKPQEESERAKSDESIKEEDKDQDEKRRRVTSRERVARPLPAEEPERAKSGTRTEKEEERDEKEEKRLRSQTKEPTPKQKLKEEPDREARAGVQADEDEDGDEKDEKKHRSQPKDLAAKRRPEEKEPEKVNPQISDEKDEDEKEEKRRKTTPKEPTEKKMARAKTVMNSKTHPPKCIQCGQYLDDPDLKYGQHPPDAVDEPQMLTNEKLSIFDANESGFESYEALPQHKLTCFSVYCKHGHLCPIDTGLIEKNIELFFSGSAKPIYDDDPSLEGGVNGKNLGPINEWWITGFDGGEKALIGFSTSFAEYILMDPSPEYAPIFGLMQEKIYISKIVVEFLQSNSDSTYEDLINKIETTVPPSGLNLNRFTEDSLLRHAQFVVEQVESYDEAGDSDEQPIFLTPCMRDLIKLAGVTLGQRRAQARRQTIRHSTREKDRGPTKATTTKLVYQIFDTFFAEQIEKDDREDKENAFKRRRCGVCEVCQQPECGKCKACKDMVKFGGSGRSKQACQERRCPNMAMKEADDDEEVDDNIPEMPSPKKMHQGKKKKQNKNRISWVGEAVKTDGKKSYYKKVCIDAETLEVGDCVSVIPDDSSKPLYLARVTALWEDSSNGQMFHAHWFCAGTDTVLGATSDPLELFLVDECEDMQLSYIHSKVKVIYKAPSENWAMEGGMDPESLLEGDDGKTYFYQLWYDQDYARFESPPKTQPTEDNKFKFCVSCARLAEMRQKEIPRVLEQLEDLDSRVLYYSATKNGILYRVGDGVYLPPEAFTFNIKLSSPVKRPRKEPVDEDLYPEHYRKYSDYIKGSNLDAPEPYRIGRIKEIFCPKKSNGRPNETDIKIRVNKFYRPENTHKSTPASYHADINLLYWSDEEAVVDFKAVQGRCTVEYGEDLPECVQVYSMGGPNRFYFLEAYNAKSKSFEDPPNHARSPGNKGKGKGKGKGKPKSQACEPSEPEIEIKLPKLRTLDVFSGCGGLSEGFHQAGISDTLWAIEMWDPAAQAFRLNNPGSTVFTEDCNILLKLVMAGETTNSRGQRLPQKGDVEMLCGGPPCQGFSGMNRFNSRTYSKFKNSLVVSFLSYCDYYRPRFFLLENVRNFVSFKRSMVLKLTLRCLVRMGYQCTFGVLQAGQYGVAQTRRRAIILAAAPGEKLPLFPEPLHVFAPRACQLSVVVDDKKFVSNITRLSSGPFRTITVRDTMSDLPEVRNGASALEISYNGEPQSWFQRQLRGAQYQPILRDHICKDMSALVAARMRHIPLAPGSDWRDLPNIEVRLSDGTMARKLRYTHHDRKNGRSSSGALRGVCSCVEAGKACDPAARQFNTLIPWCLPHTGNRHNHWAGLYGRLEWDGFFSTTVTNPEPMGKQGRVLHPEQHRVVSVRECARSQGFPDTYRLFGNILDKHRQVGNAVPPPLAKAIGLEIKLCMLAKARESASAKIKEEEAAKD

[9] = biological target: Induced myeloid leukemia cell differentiation protein Mcl-1 (Homo sapiens, UniProt Q07820); format: functional
Sequence of Induced myeloid leukemia cell differentiation protein Mcl-1 (Q07820 whole entry): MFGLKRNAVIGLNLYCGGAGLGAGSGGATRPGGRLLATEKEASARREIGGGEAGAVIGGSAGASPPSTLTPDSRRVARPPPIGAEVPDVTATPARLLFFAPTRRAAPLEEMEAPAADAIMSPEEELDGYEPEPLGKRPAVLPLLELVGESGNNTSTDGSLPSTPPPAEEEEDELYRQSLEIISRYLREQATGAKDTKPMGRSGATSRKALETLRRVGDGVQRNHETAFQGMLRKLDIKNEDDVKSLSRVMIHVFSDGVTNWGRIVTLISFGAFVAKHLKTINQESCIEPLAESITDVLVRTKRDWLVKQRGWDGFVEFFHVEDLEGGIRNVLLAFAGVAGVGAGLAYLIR

Large T antigen = Large T antigen (Simian virus 40, UniProt P03070); format: functional, Betapolyomavirus macacae;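 further: Confirmatory-stage PubChem screen for compounds that inhibit SV40 T antigen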
Sequence of Large T antigen (P03070 whole entry): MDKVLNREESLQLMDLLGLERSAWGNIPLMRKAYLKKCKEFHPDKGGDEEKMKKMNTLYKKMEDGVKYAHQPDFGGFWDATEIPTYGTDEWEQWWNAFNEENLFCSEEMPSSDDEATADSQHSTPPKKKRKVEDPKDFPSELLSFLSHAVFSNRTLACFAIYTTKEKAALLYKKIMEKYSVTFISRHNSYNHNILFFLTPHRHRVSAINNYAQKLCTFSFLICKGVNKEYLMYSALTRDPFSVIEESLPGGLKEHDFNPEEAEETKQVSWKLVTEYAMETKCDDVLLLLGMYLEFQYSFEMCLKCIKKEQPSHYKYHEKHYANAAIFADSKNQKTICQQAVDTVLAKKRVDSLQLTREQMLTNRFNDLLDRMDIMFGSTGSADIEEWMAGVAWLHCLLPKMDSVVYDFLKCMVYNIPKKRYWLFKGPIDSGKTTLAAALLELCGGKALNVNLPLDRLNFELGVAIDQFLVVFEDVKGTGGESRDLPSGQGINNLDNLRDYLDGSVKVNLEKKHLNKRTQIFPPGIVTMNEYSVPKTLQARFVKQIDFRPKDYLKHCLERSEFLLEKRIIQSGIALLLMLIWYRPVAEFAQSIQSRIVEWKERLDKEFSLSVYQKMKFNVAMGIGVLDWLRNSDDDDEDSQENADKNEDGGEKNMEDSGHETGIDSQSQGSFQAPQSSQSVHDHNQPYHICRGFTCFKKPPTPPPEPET

Caspase-6 = biological target: T7, Caspase-6 (Homo sapiens, UniProt P55212); assay: inhibition of CASP6 peptide cleavage – biochemical, VEID-R110 fluorescence, cherry-pick, dose response (AID 720632)
T7 sequence (P55212 whole entry): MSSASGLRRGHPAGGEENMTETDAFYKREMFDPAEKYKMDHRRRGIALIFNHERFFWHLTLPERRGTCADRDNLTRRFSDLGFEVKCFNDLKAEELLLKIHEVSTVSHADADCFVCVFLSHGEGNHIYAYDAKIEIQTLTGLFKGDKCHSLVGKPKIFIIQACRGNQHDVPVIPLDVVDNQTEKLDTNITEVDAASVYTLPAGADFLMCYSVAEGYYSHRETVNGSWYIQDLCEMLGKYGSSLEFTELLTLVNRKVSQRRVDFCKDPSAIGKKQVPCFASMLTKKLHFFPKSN

ORF 73 = ORF 73 (Human herpesvirus 8, UniProt O40947); assay: KSHV LANA DNA-binding disruption – biochemical, fluorescence polarization, cherry-picked samples, dose response (AID 504725); set-up: species or system Human gammaherpesvirus 8;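 further: fluorescence polarization of a labeled DNA duplex reporting LANA DNA binding; potency is for inhibitors that block LANA binding to the DNA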
[10] = HEK-293T cell viability reduction – luminescence, B-cell screen hits, cytotoxicity control for BCR NF-kB inhibitor project, dose response (AID 489021); format: functional, cell-based;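 further: HEK-293T cells carrying an NF-kB luciferase reporter; cells exposed to compound for about 14 hours before viability readout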
[11] = biological target: T8, Kappa-type opioid receptor (Homo sapiens, UniProt P41145); assay: SAR analysis of Antagonists of the Kappa Opioid Receptor (KOR) using an Image-Based Assay - Set 4. [Related pubchem assays (depositor defined):AID1777, AID1785]; format: functional
T8 sequence (P41145 whole entry): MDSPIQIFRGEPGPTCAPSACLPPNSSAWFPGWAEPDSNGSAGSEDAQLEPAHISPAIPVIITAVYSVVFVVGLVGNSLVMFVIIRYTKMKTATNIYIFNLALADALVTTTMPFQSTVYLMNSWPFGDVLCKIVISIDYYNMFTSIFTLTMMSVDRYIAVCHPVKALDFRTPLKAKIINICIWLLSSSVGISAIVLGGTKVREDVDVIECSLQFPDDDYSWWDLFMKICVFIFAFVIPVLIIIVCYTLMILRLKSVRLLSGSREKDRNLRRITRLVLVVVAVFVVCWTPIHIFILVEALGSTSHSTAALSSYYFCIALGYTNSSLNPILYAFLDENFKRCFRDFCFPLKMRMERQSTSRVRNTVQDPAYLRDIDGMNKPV

[12] = biological target: Delta-type opioid receptor (Homo sapiens, UniProt P41143); assay: SAR Analysis of Antagonists of the DOR Receptor using an Image-Based Assay - Set 3. [Related pubchem assays (depositor defined):AID1777, AID1785]; format: functional;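 further: U2OS cells expressing DOR1 and beta-arrestin GFP stimulated with 100 nM SNC80; imaging of GFP-tagged beta-arrestin moving into spots after receptor activation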
Sequence of Delta-type opioid receptor (P41143 whole entry): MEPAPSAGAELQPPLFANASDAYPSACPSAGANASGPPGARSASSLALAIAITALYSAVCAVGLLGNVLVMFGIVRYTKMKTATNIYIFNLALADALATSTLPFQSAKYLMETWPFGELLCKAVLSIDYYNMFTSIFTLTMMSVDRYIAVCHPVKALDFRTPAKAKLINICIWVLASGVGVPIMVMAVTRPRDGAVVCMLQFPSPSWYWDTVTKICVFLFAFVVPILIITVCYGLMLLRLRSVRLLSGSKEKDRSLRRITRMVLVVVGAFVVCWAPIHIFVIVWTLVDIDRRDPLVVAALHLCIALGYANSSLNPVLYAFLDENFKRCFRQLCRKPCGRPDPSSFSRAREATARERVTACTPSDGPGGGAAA

Mu-type opioid receptor = Mu-type opioid receptor (Homo sapiens, UniProt P35372); assay: SAR Analysis of Antagonists of the MOR Receptor using an Image-Based Assay - Set 3. [Related pubchem assays (depositor defined):AID1777, AID1785, AID1786, AID1966, AID2133, AID2136, AID2284, AID2285, AID2420]; format: functional
Sequence of Mu-type opioid receptor (P35372 whole entry): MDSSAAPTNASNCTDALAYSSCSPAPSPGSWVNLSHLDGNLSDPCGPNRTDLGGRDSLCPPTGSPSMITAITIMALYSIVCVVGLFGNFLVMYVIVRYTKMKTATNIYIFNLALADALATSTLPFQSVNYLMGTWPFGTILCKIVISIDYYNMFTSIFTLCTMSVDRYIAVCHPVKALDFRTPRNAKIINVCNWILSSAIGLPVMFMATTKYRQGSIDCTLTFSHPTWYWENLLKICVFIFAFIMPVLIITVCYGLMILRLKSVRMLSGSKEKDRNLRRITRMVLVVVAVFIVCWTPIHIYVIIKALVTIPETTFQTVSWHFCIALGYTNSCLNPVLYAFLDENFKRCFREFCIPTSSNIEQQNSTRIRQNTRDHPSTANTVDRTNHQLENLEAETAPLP

[13] = biological target: T8, Kappa-type opioid receptor; assay: SAR analysis of small molecule antagonists of the kappa opioid receptor via a luminescent beta-arrestin assay - Set 4. [Related pubchem assays (depositor defined):AID1777, AID1778, AID1785, AID1786, AID1966, AID2133, AID2136, AID2285]; format: functional

EC50 [1]: 1.68 µM (active)
IC50 (Phospholipase A2): 1.77 µM (active)
IC50 (SUMO-activating enzyme [2]): 9.45 µM (active)
IC50 [3]: 1.44 µM (active)
EC50 [4]: 2.41 µM (active)
IC50 (Cysteine protease ATG4B): 2.05 µM (active)
IC50 (SUMO-activating enzyme [5]): 2.85 µM (active)
Structure (SMILES): Cc1ccccc1NC(=O)CN1C(=O)S/C(=C\c2ccc(-c3cc(C(=O)O)ccc3C)o2)C1=O

IC50 [8]: 6.74 µM (active)
IC50 [9]: 4.87 µM (active)
IC50 (Large T antigen): 23.1 µM (active)
AC50 (Caspase-6): 11.1 µM (active)
AC50 (ORF 73): 22.1 µM (active)
Structure (SMILES): O=C(O)Cc1c[nH]c2cccc(O)c12

IC50 [11]: 2.01 µM (active)
IC50 [12]: > 32 µM (inactive)
IC50 (Mu-type opioid receptor): > 32 µM (inactive)
IC50 [13]: 1.6 µM (active)
Structure (SMILES): CCC(C)c1ccc(S(=O)(=O)NCc2ccc(C(=O)NCCN(Cc3ccccc3)C(C)C)cc2)cc1 (stereo not drawn)

The next lines start with the compound.

Structure (SMILES): C=CCCC(=O)Nc1nc(C)c(-c2csc(Nc3ccc(Cl)cc3)n2)s1
AC50 [6]: 2.6 µM (active)
AC50 [7]: 7.3 µM (active)

Structure (SMILES): COc1ccc(NC(=O)CN(C)C(=O)C2(c3ccccc3)CCCC2)cc1
IC50 [10]: > 80 µM (inactive)

Structure (SMILES): COc1ccc(N2CCN(CCNC(=O)Cn3c(=O)c4cccn4c4c(C)ccnc43)CC2)cc1
IC50 [11]: > 32 µM (inactive)
IC50 [12]: > 32 µM (inactive)
IC50 (Mu-type opioid receptor): > 32 µM (inactive)
IC50 [13]: 14.1 µM (inactive)
